# Measurements reported in patent publication US12577206B2 (BRISTOL-MYERS SQUIBB COMPANY, priority 2020, dated 2026).
# Legend:
# human FPR2 = target: T1, human FPR2 (Homo sapiens, UniProt P25090); test: FPR2 cyclic adenosine monophosphate (cAMP) assay; assay type: cell-based; details: CHO cells overexpressing human FPR2; forskolin 5 μM; inhibition of cAMP production; HTRF; read-out: hFPR2 cAMP2 EC50
# T1 sequence (P25090 1-351): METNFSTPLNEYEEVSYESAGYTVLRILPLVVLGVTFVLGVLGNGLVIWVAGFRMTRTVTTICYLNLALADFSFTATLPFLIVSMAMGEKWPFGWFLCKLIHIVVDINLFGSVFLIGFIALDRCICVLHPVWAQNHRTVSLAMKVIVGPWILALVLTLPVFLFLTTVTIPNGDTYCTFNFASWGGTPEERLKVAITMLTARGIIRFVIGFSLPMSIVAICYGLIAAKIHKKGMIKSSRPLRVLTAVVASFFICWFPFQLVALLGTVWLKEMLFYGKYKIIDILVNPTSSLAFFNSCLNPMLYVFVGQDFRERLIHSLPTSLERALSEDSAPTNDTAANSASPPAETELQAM
# Method in brief: (§1)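 Inhibition of forskolin-stimulated cAMP (final forskolin 5 μM for FPR2, 10 μM for FPR1; IBMX 200 μM) was measured by HTRF in recombinant CHO cells after 30 min at room temperature.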
# human FPR1 = target: T2, human FPR1 (Homo sapiens, UniProt P21462); test: FPR1 cyclic adenosine monophosphate (cAMP) assay; assay type: cell-based; details: CHO cells overexpressing human FPR1; forskolin 10 μM; inhibition of cAMP production; HTRF; read-out: hFPR1 cAMP2 EC50
# T2 sequence (P21462 1-350): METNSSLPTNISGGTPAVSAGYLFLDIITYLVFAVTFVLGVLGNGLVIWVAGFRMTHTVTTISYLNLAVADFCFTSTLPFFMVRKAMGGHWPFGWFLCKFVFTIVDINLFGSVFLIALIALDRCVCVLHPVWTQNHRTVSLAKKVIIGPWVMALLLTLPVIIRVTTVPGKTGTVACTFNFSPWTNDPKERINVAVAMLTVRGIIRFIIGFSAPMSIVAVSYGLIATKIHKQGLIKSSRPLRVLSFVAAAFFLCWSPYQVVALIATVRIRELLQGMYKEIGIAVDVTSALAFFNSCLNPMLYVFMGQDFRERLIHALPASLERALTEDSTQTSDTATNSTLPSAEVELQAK
# Method in brief: as §1
compound,measurement,setting,value
"CCc1ccc(N2CC(C)(O)C2)nc1-n1c(=O)c(NC(=O)c2ccc(OC(F)F)cc2)c(-c2c(F)cc(OC)cc2F)n1C [Example 310, N-[5-(2,6-difluoro-4-methoxyphenyl)-2-[3-ethyl-6-(3-hydroxy-3-methylazetidin-1-yl)pyridin-2-yl]-1-methyl-3-oxo-2,3-dihydro-1H-pyrazol-4-yl]-4-(difluoromethoxy)benzamide]",EC50,human FPR2,7 nM
same,EC50,human FPR1,> 10000 nM
"COc1cc(F)c(-c2c(NC(=O)c3ccc(-n4cccn4)cc3)c(=O)n(-c3ccccc3)n2C)c(F)c1 [Example 23, N-[5-(2,6-difluoro-4-methoxyphenyl)-1-methyl-3-oxo-2-phenyl-2,3-dihydro-1H-pyrazol-4-yl]-4-(1H-pyrazol-1-yl)benzamide]",EC50,human FPR2,150 nM
same,EC50,human FPR1,3000 nM
"COc1cc(F)c(-c2c(NC(=O)c3ccc(OC(F)F)cc3)c(=O)n(-c3ccc(F)cc3)n2C)c(F)c1 [Example 12, N-[5-(2,6-difluoro-4-methoxyphenyl)-2-(4-fluorophenyl)-1-methyl-3-oxo-2,3-dihydro-1H-pyrazol-4-yl]-4-(difluoromethoxy)benzamide]",EC50,human FPR2,17 nM
same,EC50,human FPR1,1600 nM
"COc1cc(F)c(-c2c(NC(=O)c3ccc(OC(F)F)cc3)c(=O)n(-c3nc(NCC4(O)CC4)ccc3C(F)(F)F)n2C)c(F)c1 [Example 283, N-[5-(2,6-difluoro-4-methoxyphenyl)-2-(6-{[(1-hydroxycyclopropyl)methyl]amino}-3-(trifluoromethyl)pyridin-2-yl)-1-methyl-3-oxo-2,3-dihydro-1H-pyrazol-4-yl]-4-(difluoromethoxy)benzamide]",EC50,human FPR2,1 nM
same,EC50,human FPR1,> 10000 nM
"COc1cc(F)c(-c2c(NC(=O)c3ccc(OC(F)F)cc3)c(=O)n(-c3nc(N[C@@H](C)CO)ccc3C(F)(F)F)n2C)c(F)c1 [Example 237, N-[5-(2,6-difluoro-4-methoxyphenyl)-2-(6-{[(2S)-1-hydroxypropan-2-yl]amino}-3-(trifluoromethyl)pyridin-2-yl)-1-methyl-3-oxo-2,3-dihydro-1H-pyrazol-4-yl]-4-(difluoromethoxy)benzamide]",EC50,human FPR2,1 nM
same,EC50,human FPR1,> 5000 nM
COc1cc(F)c(-c2c(NC(=O)c3ccc(OC(F)F)cc3)c(=O)n(-c3nc(NC[C@@H](C)O)ccc3C(F)(F)F)n2C)c(F)c1 [Example 273],EC50,human FPR2,3 nM
same,EC50,human FPR1,> 5000 nM
"CCc1ccc(N2CCN(C)CC2)nc1-n1c(=O)c(NC(=O)c2ccc(OC(F)F)cc2)c(-c2c(F)cc(OC)cc2F)n1C [Example 244, N-[5-(2,6-difluoro-4-methoxyphenyl)-2-[3-ethyl-6-(4-methylpiperazin-1-yl)pyridin-2-yl]-1-methyl-3-oxo-2,3-dihydro-1H-pyrazol-4-yl]-4-(difluoromethoxy)benzamide]",EC50,human FPR2,35 nM
same,EC50,human FPR1,> 10000 nM
"CCc1cccnc1-n1c(=O)c(NC(=O)c2ccc(OC(F)F)cc2)c(-c2c(F)cc(OC)cc2F)n1C [Example 166, N-[5-(2,6-difluoro-4-methoxyphenyl)-2-(3-ethylpyridin-2-yl)-1-methyl-3-oxo-2,3-dihydro-1H-pyrazol-4-yl]-4-(difluoromethoxy)benzamide]",EC50,human FPR2,20 nM
same,EC50,human FPR1,> 10000 nM
"COc1cncc(-n2c(=O)c(NC(=O)c3ccc(OC(F)F)cc3)c(-c3c(F)cc(OC)cc3F)n2C)c1 [Example 129, N-[5-(2,6-difluoro-4-methoxyphenyl)-2-(5-methoxypyridin-3-yl)-1-methyl-3-oxo-2,3-dihydro-1H-pyrazol-4-yl]-4-(difluoromethoxy)benzamide]",EC50,human FPR2,24 nM
same,EC50,human FPR1,2200 nM
"COc1cc(F)c(-c2c(NC(=O)c3ccc(OC(F)F)cc3)c(=O)n(-c3cc(OC(C)C)cc(OCC(C)(C)O)n3)n2C)c(F)c1 [Example 377, N-(5-(2,6-Difluoro-4-methoxyphenyl)-2-(6-(2-hydroxy-2-methylpropoxy)-4-isopropoxypyridin-2-yl)-1-methyl-3-oxo-2,3-dihydro-1H-pyrazol-4-yl)-4-(difluoromethoxy)benzamide]",EC50,human FPR2,8 nM
same,EC50,human FPR1,470 nM
"COc1cc(F)c(-c2c(NC(=O)c3ccc(OC(F)(F)F)cc3)c(=O)n(-c3cccc(-n4ccc(C)n4)n3)n2C)c(F)c1 [Example 70, N-[5-(2,6-difluoro-4-methoxyphenyl)-1-methyl-2-[6-(3-methyl-1H-pyrazol-1-yl)pyridin-2-yl]-3-oxo-2,3-dihydro-1H-pyrazol-4-yl]-4-(trifluoromethoxy)benzamide]",EC50,human FPR2,3 nM
same,EC50,human FPR1,5 nM
"COc1cc(F)c(-c2c(NC(=O)c3ccc(OC(F)F)cc3)c(=O)n(-c3nc(C(F)(F)F)ccc3OCC3CCOC3)n2C)c(F)c1 (stereo not drawn) [Example 370, N-(5-(2,6-Difluoro-4-methoxyphenyl)-1-methyl-3-oxo-2-(3-((tetrahydrofuran-3-yl)methoxy)-6-(trifluoromethyl)pyridin-2-yl)-2,3-dihydro-1H-pyrazol-4-yl)-4-(difluoromethoxy)benzamide]",EC50,human FPR2,5 nM
same,EC50,human FPR1,> 10000 nM
"COc1cc(F)c(-c2c(NC(=O)c3ccc(OC(F)F)cc3)c(=O)n(-c3nc(N4CC(F)(F)C4)ccc3Cl)n2C)c(F)c1 [Example 145, N-{2-[3-chloro-6-(3,3-difluoroazatidin-1-yl)pyridin-4-methoxyphenyl)-1-methyl-3-oxo-2,3-dihydro-1H-pyrazol-4-yl}-4-(difluoromethoxy)benzamide]",EC50,human FPR2,3 nM
same,EC50,human FPR1,2900 nM
"COc1cc(F)c(-c2c(NC(=O)c3ccc(OC(F)F)cc3)c(=O)n(-c3cc(OC)ccc3Cl)n2C)c(F)c1 [Example 198, N-[2-(2-chloro-5-methoxyphenyl)-5-(2,6-difluoro-4-methoxyphenyl)-1-methyl-3-oxo-2,3-dihydro-1H-pyrazol-4-yl]-4-(difluoromethoxy)benzamide]",EC50,human FPR2,13 nM
same,EC50,human FPR1,> 10000 nM
"COc1cc(F)c(-c2c(NC(=O)c3ccc(OC(F)F)cc3)c(=O)n(-c3cncc(Cl)c3)n2C)c(F)c1 [Example 130, N-[2-(5-chloropyridin-3-yl)-5-(2,6-difluoro-4-methoxyphenyl)-1-methyl-3-oxo-2,3-dihydro-1H-pyrazol-4-yl]-4-(difluoromethoxy)benzamide]",EC50,human FPR2,20 nM
same,EC50,human FPR1,1900 nM
"COc1cc(F)c(-c2c(NC(=O)c3ccc(OC(F)F)cc3)c(=O)n(-c3ccc4ccccc4n3)n2C)c(F)c1 [Example 60, N-[5-(2,6-difluoro-4-methoxyphenyl)-1-methyl-3-oxo-2-(quinolin-2-yl)-2,3-dihydro-1H-pyrazol-4-yl]-4-(difluoromethoxy)benzamide]",EC50,human FPR2,3 nM
same,EC50,human FPR1,210 nM
"COc1cc(F)c(-c2c(NC(=O)c3ccc(OC(F)F)cc3)c(=O)n(-c3nc(NC(C)(C)CO)ccc3C(F)(F)F)n2C)c(F)c1 [Example 256, N-[5-(2,6-difluoro-4-methoxyphenyl)-2-{6-[(1-hydroxy-2-methylpropan-2-yl)amino]-3-(trifluoromethyl)pyridin-2-yl}-1-methyl-3-oxo-2,3-dihydro-1H-pyrazol-4-yl]-4-(difluoromethoxy)benzamide]",EC50,human FPR2,3 nM
same,EC50,human FPR1,> 10000 nM
"COc1cc(F)c(-c2c(NC(=O)c3ccc(OC(F)F)cc3)c(=O)n(-c3cc(OC4CCOC4)cc(C)n3)n2C)c(F)c1 (stereo not drawn) [Example 321, N-(5-(2,6-Difluoro-4-methoxyphenyl)-1-methyl-2-(6-methyl-4-((tetrahydrofuran-3-yl)oxy)pyridin-2-yl)-3-oxo-2,3-dihydro-1H-pyrazol-4-yl)-4-(difluoromethoxy)benzamide]",EC50,human FPR2,4 nM
same,EC50,human FPR1,390 nM
"COc1cc(F)c(-c2c(NC(=O)c3ccc(OC(F)F)cc3)c(=O)n(-c3nc(Cl)ccc3N3CC4(COC4)C3)n2C)c(F)c1 [Example 144, N-[2-(6-chloro-3-{2-oxa-6-azaspiro[3.3]heptan-6-yl}pyridin-2-yl)-5-(2,6-difluoro-4-methoxyphenyl)-1-methyl-3-oxo-2,3-dihydro-1H-pyrazol-4-yl]-4-(difluoromethoxy)benzamide]",EC50,human FPR2,22 nM
same,EC50,human FPR1,> 10000 nM
"[2H]C([2H])([2H])Oc1cc(F)c(-c2c(NC(=O)c3ccc(OC(F)F)cc3)c(=O)n(-c3cc(C(F)F)ccn3)n2C)c(F)c1 [Example 397, N-(5-(2,6-difluoro-4-(methoxy-d3)phenyl)-2-(4-(difluoromethyl)pyridin-2-yl)-1-methyl-3-oxo-2,3-dihydro-1H-pyrazol-4-yl)-4-(difluoromethoxy)benzamide]",EC50,human FPR2,8 nM
same,EC50,human FPR1,> 10000 nM
"Cn1c(-c2ccc(OC(F)(F)F)cc2)c(NC(=O)c2ccc(OC(F)F)cc2)c(=O)n1-c1ncccc1C(F)(F)F [Example 304, 4-(difluoromethoxy)-N-{1-methyl-3-oxo-5-[4-(trifluoromethoxy)phenyl]-2-[3-(trifluoromethyl)pyridin-2-yl]-2,3-dihydro-1H-pyrazol-4-yl}benzamide]",EC50,human FPR2,21 nM
same,EC50,human FPR1,110 nM
